In US10543286B2, “Methods for increasing platelet count by inhibiting biliverdin IXβ reductase” (The Research Foundation for The State University of New York, priority 2015, dated 2020):
pEC50, pIC50: −log10 of the molar value.

What was measured:
[1] = system: control or iPSC/BLVRB^S111L cells (NCRM1 iPSCs); assay: TBHP-induced ROS accumulation in genetically-modified iPSCs (CellROX Green, flow cytometry); format: cell-based; conditions: Homo sapiens, 1 hour at 37° C., read-out: concentration causing ROS accumulation in 50% of cells (EC50)
Procedure: FIG. 3i is a bar graph showing ROS expression by genetically-modified NCRM1 iPSCs. About 1×10^5, cells were labeled as in FIG. 2h, and treated (or not) with 200 μM tert-butyl hydroperoxide (TBHP) for 1 hour at 37° C., and ROS-expressing cells were quantitated by flow cytometry after a 60 minute period loading with cell-permeable CellROX Green (500 nM) as indicator (N=6); p-values *<0.05; **<0.01; ***<0.001; ****<0.0001. From left to right, the bars correspond to activity in control cells, activity in cells having BLVRB^WT, and activity in cells having BLVRB^S111L.
Hematopoietic-derived (CD34^+) induced pluripotent stein cells (iPSC) expressing endogenous BLVRB were initially developed as heterozygous models designed to phenocopy zygosity state in subject cohorts. […]
Human CD34^+-derived NCRM1 induced pluripotent stem cells (iPSC) were genetically modified using lentivirus infection (MOI 9) for generation of stable cell lines after puromycin selection (iPSC/BLVRB^S111L, iPSC/BLVRB^WT, iPSC/Control). Oxidation/reduction activity was quantified in vitro using the NADPH-dependent redox coupler resazurin; cells (4×10^4/well) were plated and propagated in mTeSR1 medium and at 24 hours were incubated with resazurin (0.1 v/v) followed by serial spectrofluorimetric detection (530 nm excitation, 590 nm emission) for the reduced resorufin byproduct. […]

[2] = molecular target: T1, biliverdin IX beta reductase (BLVRB) (Homo sapiens, UniProt P30043); assay: BLVRB flavin reductase inhibition assay (FMN/NADPH, absorbance at 340 nm); format: biochemical; conditions: 300 nM recombinant BLVRB, 200 μM FMN, 100 μM NADPH, 100 mM potassium phosphate pH 7.6, 37° C.; read-out: IC50, concentration of inhibitor needed to inhibit the target enzyme by 50% (flavin reductase activity of BLVRB)
T1 construct: BLVRBWT and BLVRBS111L open reading frames were PCR-amplified and directionally-cloned into pGEX-KG expression vector; GST (N, cleaved yes); made in house; LB medium, IPTG induction
T1 sequence (P30043 1-206): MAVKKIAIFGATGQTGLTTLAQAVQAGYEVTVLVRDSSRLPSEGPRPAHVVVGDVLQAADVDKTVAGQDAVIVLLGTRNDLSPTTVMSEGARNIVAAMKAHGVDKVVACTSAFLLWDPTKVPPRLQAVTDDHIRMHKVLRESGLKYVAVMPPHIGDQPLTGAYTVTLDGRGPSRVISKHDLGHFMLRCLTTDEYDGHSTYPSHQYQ
Procedure: In one embodiment, the agent is a. chemical compound. An example of such a compound is described in Example 7. Inhibition of enzyme activity by the compound was tested in a reaction containing 100 mM potassium phosphate, pH 7.6, 200 μM FMN (flavin mononucleotide), 100 μM NADPH.
Reactions were initiated by the addition of 300 nM recombinant BLVRB. Enzymatic activity was monitored by following the decrease in absorbance at 340 nm which corresponds to the oxidation of NADPH to NADP^+. […] (FIG. 9)

pIC50 [2] | Structure (SMILES) | pEC50 [1]
 | CC(C)(C)OO [TBHP, tert-butyl hydroperoxide] | 3.70
4.51 | COc1ccc2nc3cc(Cl)ccc3c(Nc3ccc(O)c(CN4CCN(C)CC4)c3)c2c1 [compound 1301] | 
